Results on 14 molecules are retold here after patent publication US5750826A, “Bradykinin B2 receptor modified transgenic non-human animals” (Merck & Co., Inc., priority 1996, dated 1998).

Assay [1] deals with T1, mouse B2 bradykinin receptor (Mus musculus, UniProt P32299).
T1 construct: The PCR product begins 99 bp upstream of the initiator methionine codon and ends 49 bp downstream of the stop codon; expressed in transfected cells; host or cells: COS-7 (transient), pcDNAI-Neo
T1 sequence (P32299 1-366 isoform P32299-2): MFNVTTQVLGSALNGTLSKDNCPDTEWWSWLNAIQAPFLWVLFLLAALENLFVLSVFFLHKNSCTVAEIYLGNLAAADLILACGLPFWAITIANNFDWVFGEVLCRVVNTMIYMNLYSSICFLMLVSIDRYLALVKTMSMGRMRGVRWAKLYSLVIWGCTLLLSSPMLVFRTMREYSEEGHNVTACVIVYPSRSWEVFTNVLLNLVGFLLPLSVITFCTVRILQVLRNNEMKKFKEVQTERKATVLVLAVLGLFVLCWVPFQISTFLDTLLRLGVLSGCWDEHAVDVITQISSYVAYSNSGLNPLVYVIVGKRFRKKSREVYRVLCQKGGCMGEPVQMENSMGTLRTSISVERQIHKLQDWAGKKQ
Kind of assay: Effect of guanine nucleotides on binding of BK to membranes (mouse B2 receptor, COS-7). The settings on record: increasing concentrations of guanine nucleotide. The text has this:
The binding of BK to membranes was reduced by increasing concentrations of GTP, guanosine 5'-O-(3-thiotriphosphate) or 5'guanylylimidodiphosphate.

The target of assay [2] is T1, mouse B2 bradykinin receptor. Nature of the assay: Competition binding using 100 pM [3H]BK at the expressed mouse B2 bradykinin receptor. The settings on record: for affinity: expressed mouse B2 receptor, 100 pM [3H]BK. The method, then: Binding assays were then performed to determine receptor antagonist or agonist interaction. The assays utilized in the instant invention follow the method of Manning et al., J. Pharmacol. Exp. Ther., 237, 504-512 (1986). [^3 H]BK at various concentrations was incubated for 60 minutes at 25° C. with approximately 50ug membrane protein from COS-7 cells in a volume of 1 ml. The assay was terminated by filtration over Whatman GF/B filters presoaked for 3 hours in 0.1 % polyethyleneimine using a BRANDEL M-24 CELL […] (BRANDEL, Gaithersburg, Md.). The tubes were rinsed two times with 4 ml ice-cold […] and the filter bound radioactivity was quantitated by liquid scintillation counting. Nonspecific binding was determined by performing incubation in the presence of 1 uM BK and generally represents less than 5% of the total binding at 100pM ^3 H]BK. Competition binding experiments, in the presence of 100pM[^3 H]BK, were performed with varying concentrations of the test compound(s). The competition and saturation experiments were analyzed using the EBDA program of McPherson. See McPherson, G.A. J Pharmacol. Methods 14, 213-218 (1985).
To verify the pharmacological properties of the mouse bradykinin B2 receptor the coding sequence of the mouse B2 bradykinin receptor was isolated by PCR (Perkin Elmer/Cetus) using a Techne thermocycler with the template being the EcoR I by Hind III genomic fragment in pSP72 and the 5' primer 5'-[…]-3' (SEQ.ID.NO.:8) and the 3' primer 5'- […]-3' (SEQ.ID.NO.:9). The PCR product was subcloned into the Hind III and Xba I sites of the eukaryotic expression vector pcDNAI-Neo (Invitrogen). The PCR product begins 99 bp upstream of the initiator methionine codon and ends 49 bp downstream of the stop codon. The DNA sequence analysis using Sequenase (US Biochemical) of the subcloned PCR product confirmed that the sequence was identical to that in the original genomic fragment.

Assay [3] concerns the target T2, human B2 bradykinin receptor (Homo sapiens, UniProt P30411).
T2 construct: placing the entire B2 clone under the control of the CMV promoter; expressed in transfected cells
T2 sequence (P30411 1-364 isoform P30411-2): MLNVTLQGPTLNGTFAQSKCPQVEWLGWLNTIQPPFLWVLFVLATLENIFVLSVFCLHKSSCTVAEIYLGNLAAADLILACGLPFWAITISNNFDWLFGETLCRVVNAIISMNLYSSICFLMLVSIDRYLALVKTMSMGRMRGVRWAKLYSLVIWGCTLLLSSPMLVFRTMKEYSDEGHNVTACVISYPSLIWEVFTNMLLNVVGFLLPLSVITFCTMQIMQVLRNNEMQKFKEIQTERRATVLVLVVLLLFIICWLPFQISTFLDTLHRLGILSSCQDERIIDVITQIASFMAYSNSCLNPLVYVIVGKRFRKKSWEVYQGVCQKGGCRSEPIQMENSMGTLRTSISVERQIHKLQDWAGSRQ
Kind of assay: Competition binding against 100 pM [3H]BK at the cloned human B2 receptor (COS-7). Particulars: for specificity of binding (rank order): COS-7 expressed human B2 receptor; for competition for BK binding: COS-7; for IC50: [3H]BK binding to human B2 receptor. As to the method:
In order to enable expression of the cDNA that encodes for the B2 bradykinin receptor, COS-7 cells were transfected using LIPOFECTIN (BRL, Gaithersburg, Md.) with 50ug/10^7 cells of the B2 receptor cDNA subcloned into the eukaryotic expression vector pcDNA I-Neo (Invitrogen). Cells were then harvested after 72 hours and the membranes containing the expressed receptor protein were prepared by scraping the cells in phosphate buffered saline solution and centrifuging for ten minutes at 500× g. The cell pellet was then resuspended and homogenized with a Polytron in 20 mM N-tris(hydroxymethyl)methyl-2-aminoethane sulfonic acid (TES,pH 6.8 at room temperature) buffer containing 1 mM 1, 10 phenanthroline. The homogenate was then centrifuged for ten minutes at 500 × g. The final membrane pellet was resuspended in assay buffer (TES plus 0.1% protease free bovine serum albumin, 5 uM MK-422 (enalaprilat; Gross et al., 1981) and 140 ug/ml bacitracin using a motor-driven teflon-glass tissue homogenizer. Protein determination was performed by the method of Bradford using bovine IgG as the standard. See Bradford, M.A. Anal. Biochem. 72, 248-254 (1976).
Binding assays were then performed to determine receptor antagonist or agonist interaction. The assays utilized in the instant invention follow the method of Manning et al., J. Pharmacol. Exp. Ther., 237, 504-512 (1986). […] (BRANDEL, Gaithersburg, Md.). The tubes were rinsed two times with 4 ml ice-cold […] and the filter bound radioactivity was quantitated by liquid scintillation counting. […] The competition and saturation experiments were analyzed using the EBDA program of McPherson. See McPherson, G.A. J Pharmacol. Methods 14, 213-218 (1985).

The subject of the next assay is rat vas deferens. Particulars: cited from earlier work.

`Nc1nc2c(ncn2[C@@H]2O[C@H](COP(=O)(O)OP(=O)(O)NP(=O)(O)O)[C@@H](O)[C@H]2O)c(=O)[nH]1` [5'guanylylimidodiphosphate]: in assay [1], the “binding of BK to membranes” value is given as “reduced”.
With `Nc1nc2c(ncn2[C@@H]2O[C@H](COP(=O)(O)OP(=O)(O)OP(=O)(O)O)[C@@H](O)[C@H]2O)c(=O)[nH]1` [GTP, guanosine triphosphate], the “binding of BK to membranes” value in assay [1] is on record as “reduced”.
In the case of `N=C(N)NCCC[C@H](NC(=O)[C@@H](N)CCCCN)C(=O)N1CCC[C@H]1C(=O)N1CCC[C@H]1C(=O)NCC(=O)N[C@@H](Cc1ccccc1)C(=O)N[C@@H](CO)C(=O)N1CCC[C@H]1C(=O)N[C@@H](Cc1ccccc1)C(=O)O` [[des-Arg^10]-kallidin], in assay [2], the IC50 came out at 25000 nM and the affinity entry is listed as “very low affinity”.
On to `Nc1nc2c(ncn2[C@@H]2O[C@H](COP(=O)(O)OP(=O)(O)OP(O)(O)=S)[C@@H](O)[C@H]2O)c(=O)[nH]1` [guanosine 5'-O-(3-thiotriphosphate)], for which, in assay [1], the “binding of BK to membranes” value is listed as “reduced”.
For `N=C(N)NCCC[C@H](NC(=O)[C@H](Cc1ccccc1)NC(=O)[C@@H]1CCCN1C(=O)[C@H](CO)NC(=O)[C@H](Cc1ccccc1)NC(=O)CNC(=O)[C@@H]1CCCN1C(=O)[C@@H]1CCCN1C(=O)[C@H](CCCNC(=N)N)NC(=O)[C@@H](N)CCCCN)C(=O)O` [kallidin], the “specificity of binding (rank order)” value in assay [3] was “BK>lys-BK>met-lys-BK”. Further, the affinity result in assay [2] is given as “high (subnanomolar) affinity”.
As to `CSCC[C@H](N)C(=O)N[C@@H](CCCCN)C(=O)N[C@@H](CCCNC(=N)N)C(=O)N1CCC[C@H]1C(=O)N1CCC[C@H]1C(=O)NCC(=O)N[C@@H](Cc1ccccc1)C(=O)N[C@@H](CO)C(=O)N1CCC[C@H]1C(=O)N[C@@H](Cc1ccccc1)C(=O)N[C@@H](CCCNC(=N)N)C(=O)O` [met-lys-BK], in assay [3], the “specificity of binding (rank order)” value is given as “BK>lys-BK>met-lys-BK”.
With `CC[C@H](C)[C@@H]1NC(=O)[C@H](Cc2ccc(O)cc2)NC(=O)[C@@H](N)CSSC[C@@H](C(=O)N2CCC[C@H]2C(=O)N[C@@H](CC(C)C)C(=O)NCC(N)=O)NC(=O)[C@H](CC(N)=O)NC(=O)[C@H](CCC(N)=O)NC1=O` [oxytocin], the “competition for BK binding” value in assay [3] (human B2 receptor) is recorded as “No competition for BK binding”.
In assay [3], D-Arg^0-[Hyp^2,3, Thi^5,8 D-Phe^7 ]BK had an IC50 of 27 nM.
On to Des-Arg^9,LeuBK: B1 antagonist, for which, in assay [3] (10 uM, human B2 receptor), the “inhibition of BK binding” value is listed as 11%. Moreover, the “antagonism of BK responses” value with rat vas deferens (high concentrations, vas deferens) is recorded as “failed to antagonize BK responses”. The “pre- or postsynaptic BK like responses” value in the assay on rat vas deferens (rat vas deferens) is “inactive”.
With [Thi^5,8,D-Phe^7 ]BK, the IC50 in assay [3] was 180 nM.
Take “angiotensin I: peptide (DRVYIHPFHL; Angiotensin-1; UniProt P01019 25-34, looked up)”: the “competition for BK binding” value in assay [3] (human B2 receptor) is reported as “No competition for BK binding”.
Same read-out and setting: the value for “angiotensin II: peptide (DRVYIHPF; Angiotensin-2; UniProt P01019 25-32, looked up)” was “No competition for BK binding”; that for endothelin: peptide was “No competition for BK binding”; that for neurotensin was “No competition for BK binding”.

Usually IC50 stands for the midpoint of a concentration-inhibition curve. The low end stands for higher potency, the high end for lower potency.
